{"source": "patent US5736161A", "about": "“Pharmaceutical preparation for improving the bioavailability of drugs which are difficult to absorb and a procedure for obtaining it” (Lipotec S.A., priority 1993, dated 1998)", "key": {"[1]": {"assay": "Urine analysis by HPLC (molecular weight) after chondroitinase AC treatment", "format": "in vivo, dog", "details": "chondroitinase AC treated, route not distinguished", "experimental": "(§1) Bioavailability studies in which the animals received 40 mg of heparin by the oral route or 10 mg by the subcutaneous route over a period of three days.\n(§2) Four dogs (2 for each treatment), each approximately 15 kg in weight.\n(§3) The urine samples were treated with chondroitinase AC to eliminate the endogenous chondroitins. The residue was analyzed by means of proton NMR and HPLC (to determine the molecular weight)."}, "Xa": {"tested_on": "Xa", "assay": "Bioavailability test in dogs: anti-Xa activity in the plasma, ex-vivo chromogenic test (Coatest)", "design": "species or system dog", "experimental": "Bioavailability tests on the capsules prepared according to examples 1 and 2.\nas §1, §2\nA bioassay (anti-Xa activity) was used to measure the concentrations in the plasma.\nThe anti-Xa activity in the plasma was measured ex-vivo using a chromogenic test using a commercially available kit (Coatest) and expressed in IU/ml. The values were calculated from a calibration curve obtained in-vitro by adding different quantities of SLMWH to dog plasma.\nThe blood was extracted from the femoral vein. Starting on the second day of experiments samples were collected before and 1, 2, 3, 4 and 6 hours after oral or subcutaneous administration, sodium citrate was added to the samples (9 vol. sangre:1 vol. 3.8% sodium citrate) followed by centrifuging at 1200 rpm for 20 minutes at 4° C. The plasma was separated immediately and the anti-Xa activity was tested."}, "[2]": {"assay": "Urine analysis by proton NMR after chondroitinase AC treatment", "format": "in vivo, dog", "details": "chondroitinase AC treated, route not distinguished", "experimental": "as §1, §2, §3"}, "[3]": {"details": "oral, capsules (examples 1 and 2), 40 mg heparin, second day"}, "[4]": {"details": "subcutaneous, 10 mg heparin, second day"}}}
{"substance": "sodium heparin of low molecular weight [SLMWH]", "values": [{"measurement": "molecular weight of the urine residue (HPLC)", "setting": "[1]", "result": 5, "unit": "kDaltons"}, {"measurement": "levels of heparin in the blood (anti-Xa activity method)", "setting": "Xa; [3]", "result": "detectable"}, {"measurement": "peak values of anti-Xa activity in plasma", "setting": "Xa; [3]", "result": "0.2-0.4 IU/ml"}, {"measurement": "peak values of anti-Xa activity in plasma", "setting": "Xa; oral, capsules (examples 1 and 2), 40 mg heparin, third day, 1 and 2 hours after administration", "result": "0.8-1.2 IU/ml"}, {"measurement": "significant anti-Xa activity in plasma after 6 hours", "setting": "Xa; oral, capsules (examples 1 and 2), 40 mg heparin, third day", "result": "> 0.3", "unit": "IU/ml"}, {"measurement": "significant continued anti-Xa activity (>0.1 IU/ml) for 3 hours", "setting": "Xa; oral, capsules, 40 mg heparin, second day, not found after oral", "result": "only after subcutaneous administration"}, {"measurement": "levels of heparin in the blood (anti-Xa activity method)", "setting": "Xa; subcutaneous injection, 10 mg heparin, second day", "result": "detectable"}, {"measurement": "duration of significant continued anti-Xa activity (>0.1 IU/ml) in plasma", "setting": "Xa; [4]", "result": 3, "unit": "h"}, {"measurement": "peak values of anti-Xa activity in plasma", "setting": "Xa; [4]", "result": "0.2-0.4 IU/ml"}, {"measurement": "significant continued anti-Xa activity in plasma", "setting": "Xa; subcutaneous, 10 mg heparin, second day, for 3 hours", "result": "> 0.1", "unit": "IU/ml"}, {"measurement": "peak values of anti-Xa activity in plasma", "setting": "Xa; subcutaneous, 10 mg heparin, third day, 1 and 2 hours after administration", "result": "0.8-1.2 IU/ml"}, {"measurement": "significant anti-Xa activity in plasma after 6 hours", "setting": "Xa; subcutaneous, 10 mg heparin, third day", "result": "> 0.3", "unit": "IU/ml"}, {"measurement": "basal values of anti-Xa activity before the final dose", "setting": "Xa; third day vs previous day, oral or subcutaneous, route not distinguished", "result": "significantly higher than the corresponding values on the previous day"}, {"measurement": "H1-NMR test of urine", "setting": "[2]", "result": "presence of partially disulphated heparin"}]}
